#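 Tested at 5 concentrations; 48 h exposure; 96-well plates; endpoints linearly interpolated, else capped at highest concentration. GI50 = concentration required for 50% inhibition of growth. TGI is the concentration that stops growth completely.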
# Tests used:
# Assay in all cases: growth of human tumour cells (NCI), 48 h
# [1] = system: U251 CNS
# [2] = system: SF-268 CNS
# [3] = system: UACC-257 melanoma
# [4] = system: UACC-62 melanoma
# [5] = system: NCI/ADR-RES ovarian
# [6] = system: NCI-H23 lung
# [7] = system: LOX IMVI melanoma
# [8] = system: OVCAR-4 ovarian
# [9] = system: COLO 205 colon
# [10] = system: K-562 leukemia
# [11] = system: SK-MEL-2 melanoma
# [12] = system: SF-539 CNS
# [13] = system: HCC-2998 colon
# [14] = system: SNB-19 CNS
# [15] = system: IGROV1 ovarian
# [16] = system: HL-60(TB) leukemia
# [17] = system: MALME-3M melanoma
# [18] = system: KM12 colon
# [19] = system: CCRF-CEM leukemia
# [20] = system: MDA-MB-435
# [21] = system: NCI-H460 lung
# [22] = system: NCI-H522 lung
# [23] = system: RXF 393 renal
# [24] = system: BT-549 breast
# [25] = system: ACHN renal
# [26] = system: SK-MEL-5 melanoma
# [27] = system: MCF7 breast
# [28] = system: HCT-15 colon
# [29] = system: SK-MEL-28 melanoma
# [30] = system: OVCAR-3 ovarian
# [31] = system: MDA-MB-231 breast
# [32] = system: A549 NSCLC
# [33] = system: HOP-92 NSCLC
# [34] = system: CAKI-1 renal
# [35] = system: T-47D breast
# [36] = system: SN12C renal
# [37] = system: DU-145 prostate
# [38] = system: SK-OV-3 ovarian
# [39] = system: RPMI-8226 leukemia
# [40] = system: TK-10 renal
# [41] = system: OVCAR-8 ovarian
# [42] = system: EKVX NSCLC
# [43] = system: SF-295 CNS
# [44] = system: 786-0 renal
# [45] = system: MOLT-4 leukemia
# [46] = system: A498 renal
# [47] = system: M14 melanoma
# [48] = system: SNB-75 CNS
# [49] = system: HS 578T breast
# [50] = system: PC-3 prostate
# [51] = system: HOP-62 NSCLC
# [52] = system: HCT-116 colon
# [53] = system: SW-620 colon
# [54] = system: HT29 colon
# [55] = system: OVCAR-5 ovarian
# [56] = system: NCI-H226 lung
# [57] = system: UO-31 renal
# [58] = system: MDA-MB-468 breast
compound,measurement,setting,value
CCN(CC)CCOc1ccc(Nc2ncc3cc(-c4ccc(O)c(C#N)c4)c(=O)n(C)c3n2)cc1,GI50,[1],18.6 µM
same,TGI,[1],35.6 µM
same,GI50,[2],24 µM
same,TGI,[2],> 100 µM
same,GI50,[3],18.8 µM
same,TGI,[3],37.9 µM
same,GI50,[4],15.4 µM
same,TGI,[4],29.3 µM
same,GI50,[5],> 100 µM
same,TGI,[5],> 100 µM
same,GI50,[6],> 100 µM
same,TGI,[6],> 100 µM
same,GI50,[7],22.6 µM
same,TGI,[7],> 100 µM
same,GI50,[8],> 100 µM
same,TGI,[8],> 100 µM
same,GI50,[9],25 µM
same,TGI,[9],> 100 µM
same,GI50,[10],5.45 µM
same,TGI,[10],> 100 µM
same,GI50,[11],15.7 µM
same,TGI,[11],31.9 µM
same,GI50,[12],17.8 µM
same,TGI,[12],64.3 µM
same,GI50,[13],> 100 µM
same,TGI,[13],> 100 µM
same,GI50,[14],25.8 µM
same,TGI,[14],57.3 µM
same,GI50,[15],68 µM
same,TGI,[15],> 100 µM
same,GI50,[16],> 100 µM
same,TGI,[16],> 100 µM
same,GI50,[17],15.1 µM
same,TGI,[17],28.5 µM
same,GI50,[18],28.3 µM
same,TGI,[18],> 100 µM
same,GI50,[19],16.1 µM
same,TGI,[19],53.5 µM
same,GI50,[20],18.4 µM
same,TGI,[20],36.5 µM
same,GI50,[21],37.5 µM
same,TGI,[21],> 100 µM
same,GI50,[22],17.4 µM
same,TGI,[22],35 µM
same,GI50,[23],3.28 µM
same,TGI,[23],14.1 µM
same,GI50,[24],24.8 µM
same,TGI,[24],59.3 µM
same,GI50,[25],49.3 µM
same,TGI,[25],> 100 µM
same,GI50,[26],13.9 µM
same,TGI,[26],27.2 µM
same,GI50,[27],15.3 µM
same,TGI,[27],32.9 µM
same,GI50,[28],> 100 µM
same,TGI,[28],> 100 µM
same,GI50,[29],17.2 µM
same,TGI,[29],31.5 µM
same,GI50,[30],> 100 µM
same,TGI,[30],> 100 µM
same,GI50,[31],19.3 µM
same,TGI,[31],> 100 µM
same,GI50,[32],> 100 µM
same,TGI,[32],> 100 µM
same,GI50,[33],4.46 µM
same,TGI,[33],22.8 µM
same,GI50,[34],48 µM
same,TGI,[34],> 100 µM
same,GI50,[35],15.6 µM
same,TGI,[35],38.9 µM
same,GI50,[36],62.3 µM
same,TGI,[36],> 100 µM
same,GI50,[37],> 100 µM
same,TGI,[37],> 100 µM
same,GI50,[38],> 100 µM
same,TGI,[38],> 100 µM
same,GI50,[39],26.7 µM
same,TGI,[39],> 100 µM
same,GI50,[40],> 100 µM
same,TGI,[40],> 100 µM
same,GI50,[41],> 100 µM
same,TGI,[41],> 100 µM
same,GI50,[42],> 100 µM
same,TGI,[42],> 100 µM
same,GI50,[43],> 100 µM
same,TGI,[43],> 100 µM
same,GI50,[44],15 µM
same,TGI,[44],29 µM
same,GI50,[45],17.4 µM
same,TGI,[45],66.4 µM
same,GI50,[46],62.6 µM
same,TGI,[46],> 100 µM
same,GI50,[47],13.4 µM
same,TGI,[47],27.1 µM
same,GI50,[48],2.55 µM
same,TGI,[48],> 100 µM
same,GI50,[49],6.77 µM
same,TGI,[49],30.8 µM
same,GI50,[50],> 100 µM
same,TGI,[50],> 100 µM
same,GI50,[51],> 100 µM
same,TGI,[51],> 100 µM
same,GI50,[52],30.7 µM
same,TGI,[52],> 100 µM
same,GI50,[53],55.4 µM
same,TGI,[53],> 100 µM
same,GI50,[54],9.92 µM
same,TGI,[54],41.3 µM
same,GI50,[55],> 100 µM
same,TGI,[55],> 100 µM
same,GI50,[56],13 µM
same,TGI,[56],53.4 µM
same,GI50,[57],> 100 µM
same,TGI,[57],> 100 µM
same,GI50,[58],15.6 µM
same,TGI,[58],30.2 µM
